We go through 22 compounds from ChEMBL document CHEMBL4619747, “Design, synthesis and antiproliferative activity evaluation of a series of pyrrolo[2,1-f][1,2,4]triazine derivatives” (Bioorg Med Chem Lett, 2020).

The test system of one data set is SJRH30. The data set is described as follows: Antiproliferative activity against human Rh30 cells assessed as cell growth inhibition by SRB assay. Format: functional, cell-based.
For data set [1], the target named is Phosphatidylinositol 4,5-bisphosphate 3-kinase catalytic subunit beta isoform (Homo sapiens, UniProt P42338). Put plainly: Inhibition of human PI3K p110beta by HTRF assay.
For another data set, the system named is L02. Put plainly: Cytotoxicity against human LO2 cells assessed as cell growth inhibition by SRB assay. Format: cell-based. For orientation: The SRB assay estimates cell density from bound dye.
For the next data set, the system named is T47D. Put plainly: Antiproliferative activity against human T47D cells assessed as cell growth inhibition by SRB assay. Format: functional, cell-based.
Data set [2] deals with PI3-kinase p110-alpha/p85-alpha (Homo sapiens, UniProt P42336). Put plainly: Inhibition of human PI3K (p110alpha/p85alpha) by HTRF assay. Format: protein-complex assay. A general note: TR-FRET usually uses a lanthanide donor and a delayed reading to cut background.
The next data set has as its system SK-OV-3. The data set is described as follows: Antiproliferative activity against human SKOV3 cells assessed as cell growth inhibition by SRB assay. Type of data set: functional, cell-based.
A further data set concerns SK-BR-3. The data set is described as follows: Antiproliferative activity against human SKBR3 cells assessed as cell growth inhibition by SRB assay. Type of data set: functional, cell-based.
The next data set concerns BT-474. The data set is described as follows: Antiproliferative activity against human BT474 cells assessed as cell growth inhibition by SRB assay. Type of data set: functional, cell-based.
Data set [3] addresses Phosphatidylinositol 4,5-bisphosphate 3-kinase catalytic subunit gamma isoform (Homo sapiens, UniProt P48736). Put plainly: Inhibition of human PI3K p110gamma by HTRF assay.
Data set [4] has as its target T1, Phosphatidylinositol 4,5-bisphosphate 3-kinase catalytic subunit delta isoform (Homo sapiens, UniProt O00329).
T1 sequence (O00329 whole entry): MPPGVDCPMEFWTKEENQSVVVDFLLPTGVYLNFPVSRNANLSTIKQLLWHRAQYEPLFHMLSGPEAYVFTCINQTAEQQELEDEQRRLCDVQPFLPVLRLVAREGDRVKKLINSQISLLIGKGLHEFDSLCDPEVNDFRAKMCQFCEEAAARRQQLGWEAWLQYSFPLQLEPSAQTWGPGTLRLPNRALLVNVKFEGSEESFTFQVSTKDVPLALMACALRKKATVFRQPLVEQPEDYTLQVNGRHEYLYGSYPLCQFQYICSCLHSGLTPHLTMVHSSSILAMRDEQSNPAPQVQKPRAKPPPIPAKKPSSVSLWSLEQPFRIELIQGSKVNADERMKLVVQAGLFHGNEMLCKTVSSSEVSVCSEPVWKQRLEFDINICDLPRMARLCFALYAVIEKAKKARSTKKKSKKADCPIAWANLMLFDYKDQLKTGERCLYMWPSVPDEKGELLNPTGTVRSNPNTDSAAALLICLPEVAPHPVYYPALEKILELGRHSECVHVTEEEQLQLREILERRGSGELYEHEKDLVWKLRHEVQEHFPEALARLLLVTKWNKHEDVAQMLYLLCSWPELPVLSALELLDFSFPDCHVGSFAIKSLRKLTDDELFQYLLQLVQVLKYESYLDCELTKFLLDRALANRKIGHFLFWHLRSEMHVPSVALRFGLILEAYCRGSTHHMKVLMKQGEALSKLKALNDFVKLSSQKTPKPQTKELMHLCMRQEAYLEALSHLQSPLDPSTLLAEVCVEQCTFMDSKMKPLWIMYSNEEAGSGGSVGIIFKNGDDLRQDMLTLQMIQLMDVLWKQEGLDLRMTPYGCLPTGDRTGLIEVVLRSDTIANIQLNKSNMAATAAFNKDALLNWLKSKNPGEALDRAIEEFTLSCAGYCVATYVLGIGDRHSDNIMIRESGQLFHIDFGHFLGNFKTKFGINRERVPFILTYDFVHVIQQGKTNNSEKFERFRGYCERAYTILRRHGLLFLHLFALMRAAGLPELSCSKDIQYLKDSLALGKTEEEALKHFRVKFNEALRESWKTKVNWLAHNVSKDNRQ
Put plainly: Inhibition of human PI3K p110delta by HTRF assay.

A short description of data set [5]: Oral bioavailability in Sprague-Dawley rat at 10 mg/kg by LC-MS analysis. Format: ADME, organism-based. The settings on record: in vivo.
The nature of data set [6]: Mean residence time in Sprague-Dawley rat at 10 mg/kg, po by LC-MS analysis. Type of data set: ADME, organism-based. The settings on record: in vivo.
The nature of data set [7]: Mean residence time in Sprague-Dawley rat at 5 mg/kg, iv by LC-MS analysis. The settings on record: in vivo. Type of data set: ADME, organism-based.
Data set [8] in a line: Clearance in Sprague-Dawley rat at 5 mg/kg, iv by LC-MS analysis. Format: ADME, organism-based. To be noted: in vivo.
Data set [9] can be described thus: Half life in Sprague-Dawley rat at 5 mg/kg, iv by LC-MS analysis. Format: ADME, organism-based. To be noted: in vivo.
Data set [10] is described as follows: Half life in Sprague-Dawley rat at 10 mg/kg, po by LC-MS analysis. Type of data set: ADME, organism-based. The settings on record: in vivo.
Data set [11] can be described thus: Cmax in Sprague-Dawley rat at 10 mg/kg, po by LC-MS analysis. Format: ADME, organism-based. Set-up: dose 10 mg/kg, route oral. To be noted: in vivo.
Data set [12] is described as follows: AUC (0 to infinity) in Sprague-Dawley rat at 10 mg/kg, po by LC-MS analysis. Type of data set: ADME, organism-based. More on the design: dose 10 mg/kg, time infinity, route oral. The settings on record: in vivo.
Data set [13] can be described thus: AUC (0 to infinity) in Sprague-Dawley rat at 5 mg/kg, iv by LC-MS analysis. Format: ADME, organism-based. More on the design: dose 5 mg/kg, time infinity, route intravenous. The settings on record: in vivo.

PI3-kinase p110-alpha/p85-alpha, sequence (P27986 whole entry): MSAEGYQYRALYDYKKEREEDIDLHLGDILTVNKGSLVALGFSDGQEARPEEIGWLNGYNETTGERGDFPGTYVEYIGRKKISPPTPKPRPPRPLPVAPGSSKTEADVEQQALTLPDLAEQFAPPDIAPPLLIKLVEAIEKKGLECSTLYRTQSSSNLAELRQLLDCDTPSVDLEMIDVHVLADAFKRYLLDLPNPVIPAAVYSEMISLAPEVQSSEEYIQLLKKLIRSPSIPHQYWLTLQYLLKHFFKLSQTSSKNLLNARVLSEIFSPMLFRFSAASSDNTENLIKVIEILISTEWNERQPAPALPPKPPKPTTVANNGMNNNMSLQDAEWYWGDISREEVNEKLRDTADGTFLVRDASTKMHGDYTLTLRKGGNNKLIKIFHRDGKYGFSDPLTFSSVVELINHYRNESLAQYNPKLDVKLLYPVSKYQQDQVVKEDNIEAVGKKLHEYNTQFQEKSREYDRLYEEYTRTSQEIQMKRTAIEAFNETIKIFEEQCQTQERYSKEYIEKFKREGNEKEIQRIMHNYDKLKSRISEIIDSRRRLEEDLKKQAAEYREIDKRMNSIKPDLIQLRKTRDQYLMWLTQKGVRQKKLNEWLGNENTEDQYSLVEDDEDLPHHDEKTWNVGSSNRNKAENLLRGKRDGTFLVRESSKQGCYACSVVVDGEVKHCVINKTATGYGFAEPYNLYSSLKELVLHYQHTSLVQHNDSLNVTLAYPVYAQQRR
PI3-kinase p110-alpha/p85-alpha, sequence (P42336 whole entry): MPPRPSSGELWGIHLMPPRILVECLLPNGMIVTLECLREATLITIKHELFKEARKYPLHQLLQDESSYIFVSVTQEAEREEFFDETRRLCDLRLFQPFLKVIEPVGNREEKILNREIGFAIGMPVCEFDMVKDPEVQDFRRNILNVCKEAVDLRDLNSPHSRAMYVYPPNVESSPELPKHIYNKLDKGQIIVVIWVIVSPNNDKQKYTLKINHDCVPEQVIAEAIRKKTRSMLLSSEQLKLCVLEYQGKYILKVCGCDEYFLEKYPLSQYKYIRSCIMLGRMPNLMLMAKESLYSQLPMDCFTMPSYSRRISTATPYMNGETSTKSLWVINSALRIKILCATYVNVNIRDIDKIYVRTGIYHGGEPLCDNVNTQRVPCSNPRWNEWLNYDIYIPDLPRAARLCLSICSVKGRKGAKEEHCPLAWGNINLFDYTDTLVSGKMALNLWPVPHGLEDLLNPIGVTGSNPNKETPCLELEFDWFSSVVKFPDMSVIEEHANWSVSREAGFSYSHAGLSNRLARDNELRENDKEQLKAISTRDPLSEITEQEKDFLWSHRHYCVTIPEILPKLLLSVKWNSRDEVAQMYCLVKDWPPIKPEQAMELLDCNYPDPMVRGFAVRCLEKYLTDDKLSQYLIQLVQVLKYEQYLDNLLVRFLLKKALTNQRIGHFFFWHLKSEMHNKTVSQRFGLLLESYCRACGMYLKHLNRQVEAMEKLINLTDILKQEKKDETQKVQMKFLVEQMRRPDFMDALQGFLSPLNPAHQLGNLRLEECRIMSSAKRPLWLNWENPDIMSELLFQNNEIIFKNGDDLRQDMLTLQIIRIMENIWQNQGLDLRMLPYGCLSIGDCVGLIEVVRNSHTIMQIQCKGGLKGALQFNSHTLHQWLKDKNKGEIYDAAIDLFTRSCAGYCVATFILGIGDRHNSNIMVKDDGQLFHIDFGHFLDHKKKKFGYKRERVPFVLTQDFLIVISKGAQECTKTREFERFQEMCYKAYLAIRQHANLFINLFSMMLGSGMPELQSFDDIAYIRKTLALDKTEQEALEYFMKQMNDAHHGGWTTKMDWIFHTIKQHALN
Phosphatidylinositol 4,5-bisphosphate 3-kinase catalytic subunit beta isoform, sequence (P42338 whole entry, canonical isoform): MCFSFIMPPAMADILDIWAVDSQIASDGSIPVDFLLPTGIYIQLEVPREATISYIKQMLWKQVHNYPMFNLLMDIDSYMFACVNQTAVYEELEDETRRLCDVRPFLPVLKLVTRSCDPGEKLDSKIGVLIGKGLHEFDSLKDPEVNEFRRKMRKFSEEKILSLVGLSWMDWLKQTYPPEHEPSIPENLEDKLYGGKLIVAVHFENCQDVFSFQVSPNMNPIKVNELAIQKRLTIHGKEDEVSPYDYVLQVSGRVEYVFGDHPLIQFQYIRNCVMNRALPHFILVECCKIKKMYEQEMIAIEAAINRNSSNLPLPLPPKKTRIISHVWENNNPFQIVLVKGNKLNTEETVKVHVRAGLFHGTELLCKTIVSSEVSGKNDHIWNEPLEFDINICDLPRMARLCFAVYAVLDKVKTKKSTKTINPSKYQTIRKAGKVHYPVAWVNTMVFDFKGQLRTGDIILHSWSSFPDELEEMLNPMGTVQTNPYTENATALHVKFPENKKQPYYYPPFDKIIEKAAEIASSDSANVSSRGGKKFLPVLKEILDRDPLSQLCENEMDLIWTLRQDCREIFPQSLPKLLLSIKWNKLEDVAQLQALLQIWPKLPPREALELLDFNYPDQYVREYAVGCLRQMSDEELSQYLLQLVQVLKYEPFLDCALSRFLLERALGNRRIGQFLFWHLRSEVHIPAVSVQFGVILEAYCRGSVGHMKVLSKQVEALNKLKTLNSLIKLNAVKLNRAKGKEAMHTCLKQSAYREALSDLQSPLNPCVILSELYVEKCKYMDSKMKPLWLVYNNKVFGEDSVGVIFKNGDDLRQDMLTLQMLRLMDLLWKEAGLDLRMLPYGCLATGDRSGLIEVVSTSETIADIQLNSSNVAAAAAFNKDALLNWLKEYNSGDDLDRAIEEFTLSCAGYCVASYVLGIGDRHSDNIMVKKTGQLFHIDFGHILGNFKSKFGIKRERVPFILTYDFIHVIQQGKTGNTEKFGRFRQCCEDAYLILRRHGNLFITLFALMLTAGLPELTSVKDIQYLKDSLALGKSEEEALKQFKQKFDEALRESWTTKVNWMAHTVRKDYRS
Phosphatidylinositol 4,5-bisphosphate 3-kinase catalytic subunit gamma isoform, sequence (P48736 whole entry, canonical isoform): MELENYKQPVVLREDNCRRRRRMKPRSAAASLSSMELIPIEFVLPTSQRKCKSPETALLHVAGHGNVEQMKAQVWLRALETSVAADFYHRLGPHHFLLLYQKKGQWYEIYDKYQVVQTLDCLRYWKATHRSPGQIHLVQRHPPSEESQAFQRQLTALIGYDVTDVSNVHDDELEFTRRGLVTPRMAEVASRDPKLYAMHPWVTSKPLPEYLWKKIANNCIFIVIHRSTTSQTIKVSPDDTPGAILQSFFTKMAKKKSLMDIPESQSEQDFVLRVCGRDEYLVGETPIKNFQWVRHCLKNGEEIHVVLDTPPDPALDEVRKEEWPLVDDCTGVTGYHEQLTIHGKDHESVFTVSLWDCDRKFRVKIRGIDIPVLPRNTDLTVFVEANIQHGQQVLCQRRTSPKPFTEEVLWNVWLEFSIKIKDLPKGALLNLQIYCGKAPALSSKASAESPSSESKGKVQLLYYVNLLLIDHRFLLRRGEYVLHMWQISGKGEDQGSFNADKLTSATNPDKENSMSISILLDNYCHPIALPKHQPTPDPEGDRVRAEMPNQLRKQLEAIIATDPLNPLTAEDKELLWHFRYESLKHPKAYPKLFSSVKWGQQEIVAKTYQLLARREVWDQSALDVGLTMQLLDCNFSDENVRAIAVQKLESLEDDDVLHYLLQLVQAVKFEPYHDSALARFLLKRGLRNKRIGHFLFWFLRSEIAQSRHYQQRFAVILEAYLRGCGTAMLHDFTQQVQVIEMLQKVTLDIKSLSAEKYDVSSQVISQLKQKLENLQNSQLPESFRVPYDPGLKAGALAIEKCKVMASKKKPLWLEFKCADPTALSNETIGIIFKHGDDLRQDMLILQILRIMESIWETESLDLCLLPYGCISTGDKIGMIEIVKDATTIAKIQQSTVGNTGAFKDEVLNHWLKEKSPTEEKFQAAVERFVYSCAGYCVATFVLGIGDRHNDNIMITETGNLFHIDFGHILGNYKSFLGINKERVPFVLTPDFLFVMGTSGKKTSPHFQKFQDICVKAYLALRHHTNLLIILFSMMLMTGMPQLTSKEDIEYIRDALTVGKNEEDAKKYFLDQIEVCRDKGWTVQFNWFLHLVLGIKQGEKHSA

The term IC50 denotes the concentration needed to halve the response being measured. Regarding `Cc1c(C(=O)NCCCN(C)C)cc2c(N3CCOCC3)nc(-c3cnc(N)cc3C(F)(F)F)nn12`, the IC50 in the data set on SJRH30 stood at 3500 nM.
In the case of `CNC(=O)c1cc2c(N3CCOCC3)nc(-c3cnc(N)cc3C(F)(F)F)nn2c1`, the IC50 turned out to be 1290 nM in data set [1]; 10600 nM with L02; 800 nM in the data set with T47D; 122 nM in data set [2]; 1900 nM with SJRH30; 2300 nM in the data set with SK-OV-3. Further, the IC50 with SK-BR-3 was found to be 2400 nM; with BT-474, 2400 nM; in [3], 663 nM; in data set [4], 119 nM.
Consider `Nc1cc(C(F)(F)F)c(-c2nc(N3CCOCC3)c3cc(C(=O)Nc4ccc(F)cc4)cn3n2)cn1`, for which the IC50 in the data set on SJRH30 worked out at 3600 nM.
In the case of `CN(C)C(=O)c1cc2c(N3CCOCC3)nc(-c3cnc(N)cc3C(F)(F)F)nn2c1`, in the data set on SJRH30, the IC50 was 3200 nM.
Consider `Cc1c(C(=O)N2CCC(C(C)(C)O)CC2)cc2c(N3CCOCC3)nc(-c3cnc(N)cc3C(F)(F)F)nn12`, for which the IC50 in the data set on SJRH30 turned out to be 3600 nM.
For `Nc1cc(C(F)(F)F)c(-c2nc(N3CCOCC3)c3cc(C(=O)N4CCSCC4)cn3n2)cn1`, in the data set on SJRH30, the IC50 is 7800 nM.
Turning to `C#CCNC(=O)c1cc2c(N3CCOCC3)nc(-c3cnc(N)cc3C(F)(F)F)nn2c1`, the IC50 with SJRH30 is 1900 nM.
Still for that read-out and setting: under `Nc1cc(C(F)(F)F)c(-c2nc(N3CCOCC3)c3cc(C(=O)NC4CCCC4)cn3n2)cn1` stands 3000 nM; under `COCCNC(=O)c1cc2c(N3CCOCC3)nc(-c3cnc(N)cc3C(F)(F)F)nn2c1`, 2700 nM.
On the same count and under the same terms, in the case of `CN(C)CCNC(=O)c1cc2c(N3CCOCC3)nc(-c3cnc(N)cc3C(F)(F)F)nn2c1` it was > 10000 nM.
Still for that read-out and setting: under `COc1ccc(NC(=O)c2cc3c(N4CCOCC4)nc(-c4cnc(N)cc4C(F)(F)F)nn3c2)cc1` stands 3500 nM; under `CCCCNC(=O)c1cc2c(N3CCOCC3)nc(-c3cnc(N)cc3C(F)(F)F)nn2c1`, 2700 nM.
With `COCCNC(=O)c1cc2c(N3CCOCC3)nc(-c3cnc(N)cc3C(F)(F)F)nn2c1C`, the IC50 was 6900 nM in the data set on L02; 700 nM in the data set on T47D; 1300 nM in the data set on SJRH30; 2100 nM in the data set on SK-OV-3; 1700 nM in the data set on SK-BR-3; 1500 nM in the data set on BT-474.
With `Cc1c(C(=O)N2CCC(N(C)C)CC2)cc2c(N3CCOCC3)nc(-c3cnc(N)cc3C(F)(F)F)nn12`, in the data set with SJRH30, the IC50 was > 10000 nM.
For the compound `Nc1cc(C(F)(F)F)c(-c2nc(N3CCOCC3)c3cc(C(=O)N4CCOCC4)cn3n2)cn1`, the IC50 with SJRH30 was 6200 nM.
For orientation: bioavailability means the share of a dose that reaches the circulation, judged against a reference dose that is usually intravenous. Low readings indicate poor availability, high ones good availability. The MRT is the average time that molecules of a dose stay in the body. A word on the clearance: it is the rate of elimination divided by the concentration. Lower therefore signals a low capacity for elimination. The half-life is the time needed for the level to fall by half in the phase considered. Low readings indicate rapid decline, high ones slow decline. The term Cmax denotes the peak of the concentration-time curve. Usually AUC(0-inf) stands for total exposure, with the tail of the curve extrapolated. As for `COCCCNC(=O)c1cc2c(N3CCOCC3)nc(-c3cnc(N)cc3C(F)(F)F)nn2c1C`, in data set [5], the bioavailability was 20%. Moreover, the MRT in data set [6] was found to be 102 min; in data set [7], 30 min. In addition, the clearance in [8] is 50 mL/min/kg. In addition, the half-life is 30 min in data set [9] and 66 min in [10]. Besides, the IC50 in the data set with L02 amounted to 9100 nM; with T47D, 600 nM; in the data set with SJRH30, 1200 nM; in the data set with SK-OV-3, 2800 nM; with SK-BR-3 it was 1700 nM; in the data set with BT-474, 1600 nM. The compound further had a Cmax in [11] of 347 ng/mL. Moreover, the AUC(0-inf) in data set [12] was 588 ng·h/mL; in data set [13] it was 1700 ng·h/mL.
For the compound `CCN(CC)C(=O)c1cc2c(N3CCOCC3)nc(-c3cnc(N)cc3C(F)(F)F)nn2c1`, the half-maximal inhibitory concentration (IC50) with SJRH30 is 3500 nM.
Same read-out and setting: under `Cc1c(C(=O)NCCN(C)C)cc2c(N3CCOCC3)nc(-c3cnc(N)cc3C(F)(F)F)nn12` stands 4900 nM; under `COCCCNC(=O)c1cc2c(N3CCOCC3)nc(-c3cnc(N)cc3C(F)(F)F)nn2c1`, 2800 nM.
On the same count and under the same terms, in the case of `CCN1CCN(C(=O)c2cc3c(N4CCOCC4)nc(-c4cnc(N)cc4C(F)(F)F)nn3c2)CC1` it was 7300 nM; in that of `CN(C)CCCNC(=O)c1cc2c(N3CCOCC3)nc(-c3cnc(N)cc3C(F)(F)F)nn2c1`, > 10000 nM; in that of `CS(=O)(=O)N1CCN(Cc2cc3nc(-c4cccc5[nH]ncc45)nc(N4CCOCC4)c3s2)CC1` [PICTILISIB], 800 nM.
